Literature values, collected in patent US20080146639A1, “Pharmaceutical Combination of Angiotensin II Antagonists and Angiotensin I Converting Enzyme Inhibitors” (Boehringer Ingelheim Pharma GmbH & Co Kg., priority 2000, published 2008).

Conditions: treatment with ACE inhibitor ramipril; HOPE study (New Engl. J. Med., Jan. 20, 2000)

CCOC(=O)[C@H](CCc1ccccc1)N[C@@H](C)C(=O)N1[C@H](C(=O)O)C[C@@H]2CCC[C@@H]21 [ramipril]
reduction of the risk of the combined primary cardiovascular outcome: 22%
